Results: patent publication US9796700B2 (Celgene CAR LLC, priority 2013, dated 2017)
pEC50, pIC50: −log10 of the molar value. Where two headings read alike, the source gives them in different places.

Assays:
[1] = molecular target: T1, Erk1 (Homo sapiens (Human), UniProt P27361); test: Protein Mass Modification Assay (intact protein MALDI); type: binding
Method in brief: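 Human Erk1 was incubated 60 min at room temperature with a 10-fold molar excess of compound, then analysed as intact protein by MALDI with sinapinic acid matrix. The centroid mass shift versus untreated protein was divided by compound molecular weight to give percent modified protein.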
Target sequence in this assay (P27361 whole entry, looked up): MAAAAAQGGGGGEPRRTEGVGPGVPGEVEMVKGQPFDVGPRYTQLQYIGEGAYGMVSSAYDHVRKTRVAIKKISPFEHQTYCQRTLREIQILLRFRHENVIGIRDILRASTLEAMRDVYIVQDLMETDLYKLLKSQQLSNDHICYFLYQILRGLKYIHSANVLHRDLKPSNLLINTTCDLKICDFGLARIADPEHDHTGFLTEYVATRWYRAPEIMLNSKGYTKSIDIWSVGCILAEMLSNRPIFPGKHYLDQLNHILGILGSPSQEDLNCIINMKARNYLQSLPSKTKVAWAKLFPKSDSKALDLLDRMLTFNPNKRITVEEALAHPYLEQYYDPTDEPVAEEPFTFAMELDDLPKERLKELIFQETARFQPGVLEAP

[2] = molecular target: MEK1 activated ERK1 (Homo sapiens (Human), UniProt P27361); test: Omnia continuous-read kinase assay for potency against MEK1 activated ERK1; type: biochemical
Sequence of MEK1 activated ERK1 (P27361 whole entry): as the sequence (P27361 whole entry, looked up) above
Method in brief: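 Apparent IC50 came from initial reaction slopes (RFU vs time) plotted against log inhibitor with a variable-slope fit. Reactions were started with ERK1 (4 nM final) added to 50 μM ATP, roughly at its appKM, and 10 μM Sox-conjugated ST17 peptide in 20 mM Tris pH 7.5, 5 mM MgCl2. Fluorescence was monitored every 71 seconds.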

[3] = molecular target: T1, Erk1; test: Measurement of Erk occupancy with biotinylated covalent probe I-299; type: cell-based; details: HT-29 cells
Procedure: Measurement of Erk Occupancy with Biotinylated Covalent Probe
This experiment measured occupancy of the ERK1 target by compounds according to the invention. This experiment was conducted using the Mesoscale Discovery test kit (Cat. #N45107B). One day before the assay, cells were split and added at 50,000 cells per well to a flat-bottom 96 well plate in 200 μl of growth medium. The next day, the medium was discarded, 100 μl medium containing test compound was added, and the plate was incubated at 37° C. for 120 minutes. The plate was rinsed once with PBS, and 50 μl lysis buffer with test compound was added. The plate was incubated at 4° C. for 30 min, and 30 μl of lysate was transferred to a plate to capture total and phosphor-Erk. Biotinylated probe I-299 was diluted in lysis buffer and added to each well to a final concentration of 0.2 μM. The plate was incubated for 2 hr under constant shaking at room temperature. The plate was washed 3 times with MSD wash buffer. To detect the biotinylated probe bonding, tagged streptavidin was added (MSD, Cat#R32AD-1) at 1 μg/ml, 25 μl/well, followed by a 60 min incubation under shaking. The plate was washed 3 times, 150 μl MSD Read Buffer (Cat#R61TX) was added and the plate was read in a plate reader manufactured by MSD. Percent occupancy by test compound at Erk was calculated by comparing the chemiluminescence readings from treated cells as compared to the chemiluminescence readings in untreated controls (which are defined as 100% probe bonding or 0% occupancy). The amount of covalent probe signal divided by the amount of ERK signal for samples with no test compound treatment represents the maximum probe signal (MPS). In samples treated with test compound prior to covalent probe, the ratio of probe signal to ERK signal (the test probe signal, TPS) was reduced by the degree of target occupancy by the test compound which blocks covalent probe binding. The difference between the MPS and the TPS, divided by the MPS gave the target occupancy by the test compound. This ratio was then expressed as a percent occupancy. Results from this assay are provided in Table A below under the column “Occupancy EC50 (nM) HT-29.”
Target sequence in this assay (P27361 2-379 limits assumed): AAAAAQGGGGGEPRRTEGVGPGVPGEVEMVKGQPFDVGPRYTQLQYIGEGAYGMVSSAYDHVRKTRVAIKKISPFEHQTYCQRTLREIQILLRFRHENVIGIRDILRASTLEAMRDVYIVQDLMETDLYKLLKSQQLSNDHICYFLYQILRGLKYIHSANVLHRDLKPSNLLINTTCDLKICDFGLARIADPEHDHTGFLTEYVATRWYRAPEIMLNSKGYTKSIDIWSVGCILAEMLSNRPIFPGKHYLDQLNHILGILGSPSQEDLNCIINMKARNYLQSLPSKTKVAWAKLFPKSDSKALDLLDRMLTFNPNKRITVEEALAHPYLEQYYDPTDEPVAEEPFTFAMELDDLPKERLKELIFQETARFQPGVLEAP

[4] = system: ERK1 phosphorylation of its substrate RSK in HT29 cells; test: pRSK MSD Assay in HT29 cells; type: cell-based; details: Homo sapiens; for pEC50: HT-29, HT29 cells, read-out: ERK1 PRSK MSD HT29 EC50
Procedure: (§1) The protocol below describes an assay to measure the kinase activity of ERK1 to phosphorylate its substrate, RSK, in the presence of a test compound. This experiment was conducted using a Mesoscale Discovery plate. The day before the assay, HT29 cells were split and plated at 50,000 cells/well in complete growth media. After allowing cells to adhere, the media was removed and replaced with media containing 0.1% FBS and incubated overnight. Blank MDS plates were coated with 25 μl/well RSK capture antibody and incubated at 4° C. overnight. The next day, the media was removed and replaced with 100 μl of media containing a test compound and incubated for 120 minutes at 37° C. The media was removed and replaced with 55 μl of well lysis buffer with protease and phosphatase inhibitors provided in the kit, followed by incubation at 4° C. for 30 minutes. 50 μl of lysate was transferred to a blocked MSD plate, followed by incubation at room temperature for 2 hours under constant shaking. The plate was washed 3 times with MSD wash buffer (cat#R617TX), and 25 μl/well phospho-RSK (pRSK) detection antibody was added with an appropriate Sulfo-tagged anti-species detection antibody diluted in 1% BSA in MSD wash buffer. This mixture was incubated for 1 hour at room temperature under constant shaking. The plate was washed 3 times, and 150 μl 1×MSD read buffer was added, followed by signal detection in an MSD plate reader.

[5] = system: HT-29 cells; test: Measurement of inhibition of cancer cell proliferation (CellTiterGlo); type: cell-based; details: Homo sapiens, 72 hours
Procedure: Measurement of Inhibition of Cancer Cell Proliferation
HT-29 cells were split and 3000 cells in 100 μl of growth medium were added per well of a flat-bottom 96-well plate. A two-fold test compound solution in serum-free RPM1640 was made, starting at 5,000 nM. Then, 3-fold serial dilutions were made across the plate from well 1 to well 11. Well 12, the last well in a row on the plate, was left as untreated control. 100 μl compound solutions were then transferred to the wells, so the total volume of media was 200 μl per well. Plates were returned to a 37° C. incubator, and the cells were cultured for 72 hours. To measure cell proliferation after 72 hours, media was discarded from the plates, 50 μl/well of fresh medium was added, and 50 μl CellTiterGlo solution was added (Promega Cat#G7573). The plate was covered with a dark lid and incubated for 10 min. A sealing tape was applied to the bottom of the plate, and the plate was read in a luminescence plate reader. […] A 2-fold serial dilution was used to generate 8 cell densities from 50,000-390 cells per well in 50 μl media. 50 μl CellTiterGlo was added per well, and the plate was read in a luminescence plate reader after 10 min. The reading was plotted vs. cell number to generate a standard curve and the equation of the curve fit. The compound-treated sample luminescence readings were converted to cell numbers using the equation. The percent of inhibition, using untreated control as 100% growth, was then calculated. GI50 was then calculated by GraphPad Prism.

[6] = system: p-RSK (ERK activity) in cells after compound washout; test: Measurement of duration of action of test compounds (pRSK after washout); type: cell-based; details: 6 hr after compound washout
Procedure: as §1
Measurement of Duration of Action of Test Compounds
One day before the assay, the cells were split and added at 50,000 cells per well in flat-bottom 96 well plate in 200 μl of growth media. The next day, the medium was discarded, 100 μl medium containing test compounds was added, and the plate was incubated at 37° C. for 120 minutes. The medium was discarded, and the cells were rinsed 3 times with PBS followed by addition of 200 μl of fresh grow medium. The plate was returned to a 37° C. incubator, and separate cell lysates were made using MSD lysis buffer after 0.25, 0.5, 1, 2, 4, 6, 8 and 18 or 24 hours. Thereafter, pRSK was measured as described above in the section entitled pRSK MSD Assay. The data is presented in Table A under the column titled “p-RSK inhibition at 6 hr (%).”

[7] = MEK1 activated ERK1, WT, ATP at KM

| SMILES | ERK1 Mass Mod (%) [1] | pIC50 [2, 7] | EC50 [3] [nM] | pIC50 ([2]; read-out: ERK1 Omnia WT ATP KM IC50) | pEC50 [4] | GI50 [5] [nM] | EC50 ([4]; HT-29, read-out: ERK1 PRSK MSD HT29 EC50 (nM)) [nM] | p-RSK inhibition at 6 hr (%) [6] |
| --- | --- | --- | --- | --- | --- | --- | --- | --- |
| C=CC(=O)Nc1ccccc1Nc1nc(Nc2cc(C(N)=O)c(F)cc2C)ncc1Cl [Compound I-214, 5-((4-((2-acrylamidophenyl)amino)-5-chloropyrimidin-2-yl)amino)-2-fluoro-4-methylbenzamide] | F (provided a mass modification of 31-69%) | > 7.00 | < 100 | – | – | – | – | – |
| C=CC(=O)Nc1ccccc1Nc1nc(N[C@@H]2CCC[C@H](C(N)=O)C2)ncc1Cl (racemic) [Compound I-102, Rac-cis-3-(4-(2-acrylamidophenylamino)-5-chloropyrimidin-2-ylamino)cyclohexane carboxamide] | E (provided a mass modification of ≧70%) | > 7.00 | < 100 | – | – | – | – | – |
| C=CC(=O)Nc1ccccc1Nc1nc(N[C@@H]2CCC[C@H](C(N)=O)C2)ncc1C(F)(F)F (racemic) [Compound I-2, Rac-cis-3-((4-((2-acrylamidophenyl)amino)-5-(trifluoromethyl)pyrimidin-2-yl)amino)cyclohexanecarboxamide] | E (provided a mass modification of ≧70%) | – | < 100 | – | – | – | – | – |
| C=CC(=O)Nc1ccccc1Nc1nc(Nc2cc(C(N)=O)c(F)cc2C)ncc1C(F)(F)F [Compound I-76, 5-((4-((2-Acrylamidophenyl)amino)-5-(trifluoromethyl)pyrimidin-2-yl)amino)-2-fluoro-4-methylbenzamide] | E (provided a mass modification of ≧70%) | > 7.00 | < 100 | – | – | – | – | – |
| C=CC(=O)Nc1ccccc1Nc1nc(Nc2ccc(F)cc2C#N)ncc1Cl [Compound I-211, N-(2-((5-chloro-2-((2-cyano-4-fluorophenyl)amino)pyrimidin-4-yl)amino)phenyl) acrylamide] | F (provided a mass modification of 31-69%) | > 7.00 | < 100 | – | – | – | – | – |
| C=CC(=O)Nc1cc(F)ccc1Nc1nc(Nc2ccc(F)cc2C)ncc1Cl [Compound I-212, N-(2-((5-chloro-2-((4-fluoro-2-methylphenyl)amino)pyrimidin-4-yl)amino)-5-fluorophenyl)acrylamide] | F (key: E: provided a mass modification of ≧70%; F: provided a mass modification of 31-69%; G: proived a mass modification ≦30%) | – | < 100 | > 7.00 | – | – | – | – |
| C=CC(=O)Nc1cc(C)ccc1Nc1nc(N[C@H]2CCCN(C(=O)CF)C2)ncc1C(F)(F)F [Compound I-43, (S)—N-(2-((2-((1-(2-Fluoroacetyl)piperidin-3-yl)amino)-5-(trifluoromethyl)pyrimidin-4-yl)amino)-5-methylphenyl)acrylamide] | E (provided a mass modification of ≧70%) | > 7.00 | – | – | 6.30 to 7.00 | < 100 | – | – |
| C=CC(=O)Nc1cc(C)ccc1Nc1nc(Nc2cc(NC3CCC(C)(O)CC3)nc(OC)c2)ncc1C(F)(F)F (stereo not drawn) [Compound I-327, N-(2-((2-((2-((trans-4-hydroxy-4-methylcyclohexyl)amino)-6-methoxypyridin-4-yl)amino)-5-(trifluoromethyl)pyrimidin-4-yl)amino)-5-methylphenyl)acrylamide] | E (key: E: provided a mass modification of ≧70%; F: provided a mass modification of 31-69%; G: proived a mass modification ≦30%) | – | – | – | – | < 100 | < 100 | – |
| C=CC(=O)Nc1ccccc1Nc1nc(Nc2cc(CO)c(F)cc2C)ncc1C(F)(F)F [Compound I-77, N-(2-((2-((4-Fluoro-5-(hydroxymethyl)-2-methylphenyl)amino)-5-(trifluoromethyl)pyrimidin-4-yl)amino)phenyl)acrylamide] | E (provided a mass modification of ≧70%) | > 7.00 | < 100 | – | – | – | – | – |
| C=CC(=O)Nc1cc(C)ccc1Nc1nc(Nc2cc(C(N)=O)ccc2C)ncc1C(F)(F)F [Compound I-79, 3-((4-((2-Acrylamido-4-methylphenyl)amino)-5-(trifluoromethyl)pyrimidin-2-yl)amino)-4-methylbenzamide] | E (provided a mass modification of ≧70%) | – | – | – | – | – | – | E (provided a p-RSK inhibition percent of ≧70%) |

Second part, led by results:

| ERK1 Mass Mod (%) [1] | pIC50 [2, 7] | EC50 [3] [nM] | SMILES | pIC50 ([2]; read-out: ERK1 Omnia WT ATP KM IC50) | pEC50 [4] | GI50 [5] [nM] | EC50 ([4]; HT-29, read-out: ERK1 PRSK MSD HT29 EC50 (nM)) [nM] | p-RSK inhibition at 6 hr (%) [6] |
| --- | --- | --- | --- | --- | --- | --- | --- | --- |
| E (provided a mass modification of ≧70%) | > 7.00 | < 100 | C=CC(=O)Nc1cc(F)ccc1Nc1nc(Nc2cc(C(N)=O)ccc2C)ncc1Cl [Compound I-206, 3-((4-((2-acrylamido-4-fluorophenyl)amino)-5-chloropyrimidin-2-yl)amino)-4-methylbenzamide] | – | – | – | – | – |
| E (provided a mass modification of ≧70%) | > 7.00 | < 100 | C=CC(=O)Nc1ccccc1Nc1nc(Nc2cc(S(N)(=O)=O)ccc2C)ncc1Cl [Compound I-205, N-(2-((5-chloro-2-((2-methyl-5-sulfamoylphenyl)amino)pyrimidin-4-yl)amino)phenyl)acrylamide] | – | – | – | – | – |
| E (provided a mass modification of ≧70%) | > 7.00 | < 100 | C=CC(=O)Nc1ccccc1Nc1nc(Nc2cc(C(N)=O)ccc2C)ncc1Cl [Compound I-319, 3-(4-(2-acrylamidophenylamino)-5-chloropyrimidin-2-ylamino)-4-methylbenzamide] | – | – | – | – | – |
| E (provided a mass modification of ≧70%) | – | – | C=CC(=O)N(C)c1ccccc1Nc1nc(N[C@H]2CC[C@H](O)CC2)ncc1Cl [Compound I-104, N-(2-((5-chloro-2-(trans-(4-hydroxycyclohexyl)amino)pyrimidin-4-yl)amino)phenyl)-N-methylacrylamide] | – | 6.00 to 6.30 | 501 to 999 | – | – |
